Laboratory results taken from patent US20210290576A1, “STRUCTURALLY MODIFIED FATTY ACIDS FOR IMPROVING GLYCEMIC CONTROL AND TREATING INFLAMMATORY BOWEL DISEASE” (NORTHSEA THERAPEUTICS B.V., priority 2018, published 2021).
Entries after “also recorded” stand apart in the source; their conditions may differ.

How the values were obtained:
[1] = Intestinal tissue distribution of radioactivity by quantitative whole-body autoradiography (QWBA); assay type: in vivo, male albino rats; conditions: single oral 50 mg/kg [14C]-Compound B
Procedure: Biological Example 7. Concentrations of Radioactivity in Intestinal Segments of Male Albino Rats after a Single Oral Administration of [14C]-Compound B at a Nominal Dose Level of 50 mg/kg Body Weight
This study was conducted to determine the intestinal tissue distribution of radioactivity in male albino rats following a single oral administration of [14C]-Compound B using quantitative whole-body autoradiography (QWBA). The tissue distribution in rats following a single oral dose of [14C]-Compound B at 50 mg/kg (Ca 5 MBq/kg) was studied by QWBA analysis up to 168 hours after dosing.

[2] = Excretion balance: recovery of radioactivity in excreta; assay type: in vivo, male albino rats; conditions: single oral 50 mg/kg [14C]-Compound B
Procedure: Biological Example 8. Recovery of Radioactivity in the Excreta of Male Albino Rats after a Single Oral Administration of [14C]-Compound B at a Nominal Dose Level of 50 mg/kg Body Weight
To assess Compound B clearance via urine versus feces, the excretion pattern of a single oral dose of [14C]-Compound B was determined in male albino rats. […] The total excretion of radioactivity following oral administration was >95% within the first 48 hours. Excretion via the urine accounted for 12% of the administered dose. […]

[3] = system: IL6, IL1b, S100A8, TNFα, Reg3g, IL17a mRNA; test: Colonic mRNA levels of proinflammatory cytokines and biomarkers in DSS-induced colitis mice (real-time PCR); assay type: in vivo, C56BL/6J mouse; conditions: 126 and 252 mg/kg per day; normalized to HPRT; vs untreated mice
Procedure: The C56BL/6J mouse is a strain susceptible to DSS-induced colitis. To evaluate the efficacy and dosage of Compound B in treatment of DSS-induced colitis, inflammation was induced in 30 9-week old C56BL/6J mice by adding 1.5% DSS to the drinking water for 7 days. The mice were fed a standard chow diet that consisted of 30 weight percent wheat. The mice were divided into three groups of 10, and for each day of DSS administration each group was administered via oral gavage either (1) 100 μL corn oil per day (Control), (2) 126 mg/kg Compound B (dissolved in 100 μL corn oil) per day (“Compound B—Low” or “Compound B—L”), or (3) 252 mg/kg Compound B (dissolved in 100 μL corn oil) per day (“Compound B—High” or “Compound B—H”). Following the 7-day period of DSS induction, mice were sacrificed and their intestinal tissue was used for histopathological and gene expression analysis.
To evaluate the effect of treatment with Compound B on the levels of proinflammatory cytokines and biomarkers, total RNA was extracted from small and large intestinal tissue samples (>100 mg). cDNA was synthesized by reverse transcription and analyzed by real-time PCR. Results were normalized to the level of the housekeeping gene hypoxanthine guanine phosphoribosyltransferase (HPRT). The relative mRNA expression of the tested gene relative to HPRT expression was calculated using the 2^−ΔΔCt method as described in Pickert et al., J. Exp. Med., 2009, 206:1465-1472. Interleukin 6 (IL6), IL1b, calgranulin-A (S100A8), and tumor necrosis factor α (TNFα) have been implicated as mediators of IBD, including both ulcerative colitis and Crohn's disease. IL6, IL1b, and calgranulin-A are prominently expressed in inflammatory macrophages. IL22-dependent regenerating islet-derived 3 gamma (Reg3g) is induced in response to inflammation in epithelial cells. IL17 is secreted by Th17 T helper cells and innate lymphoid cells type 3 (ILC3).

With CC/C=C\C/C=C\C/C=C\C/C=C\C/C=C\CCCCSC(CC)(CC)C(=O)O [Compound B, 2-ethyl-2-((5Z,8Z,11 Z,14Z,17Z)-icosa-5,8,11,14,17-pentaenylthio)butanoic acid] the “accumulation in the caecum (time span)” value [1] was “from 4 hours onwards to 1 day”, the “accumulation in the large intestine (time)” value [1] was 8 h and the “time of peak concentrations in the small intestinal mucosa” value [1] was 4 h. For the same compound, the “% Recovery of Administered Dose, Mean total radioactivity” value ([2]; 0-168 h, n = 3) was 101%, the “total excretion of radioactivity within the first 48 hours” value [2] was greater than 95% and the “relative colonic mRNA level of IL1b” value [3] was “reduced colonic expression; also recorded: dose-dependent decrease”. The “relative colonic mRNA level of IL6” value [3] was “reduced colonic expression; also recorded: dose-dependent decrease”, the “relative colonic mRNA level of IL17a” value [3] was “lack of change” and the “relative colonic mRNA level of Reg3g” value [3] was “reduced colonic expression; also recorded: dose-dependent decrease”. The “relative colonic mRNA level of S100A8” value [3] was “reduced colonic expression; also recorded: dose-dependent decrease” and the “relative colonic mRNA level of TNFα” value [3] was “reduced colonic expression; also recorded: dose-dependent decrease”.
